Experimental data reported in patent publication USRE47475E1, “Selective agents for pain suppression” (WiSys Technology Foundation, Inc., priority 2002, dated 2019).

Tests used:
[1] = tested on: seizures; conditions: rats, even orally; cited from earlier work
[2] = molecular target: T1, GABAA/α2 (α2β3γ2 GABAA receptor) (Homo sapiens, UniProt P18507+P47869); test: competitive binding assay with [3H]flunitrazepam; conditions: Table 3; read-out: Binding Affinity at GABAA/α2
T1 construct: expressed in transfected cells
Procedure: (§1) Membranes were harvested with a Brandel cell harvester followed by three ice-cold washes onto polyethyleneimine-pretreated (0.3%) Whatman GF/C filters. Filters were dried overnight and then soaked in Ecoscint, a liquid scintillation cocktail (National Diagnostics; Atlanta, Ga.). Bound radioactivity was quantified by liquid scintillation counting. Membrane protein concentrations were determined using an assay kit from Bio-Rad (Hercules, Calif.) with bovine serum albumin as the standard.
as §1, with “The GABAA subunit selectivity of several compounds prepared as described above were determined using competitive binding assays. […] Membranes” for “Membranes”

[3] = molecular target: T2, GABAA/α6 (α6β3γ2 GABAA receptor) (Homo sapiens, UniProt P18507+Q16445); test: competitive binding assay with [3H]flunitrazepam; conditions: Table 3; read-out: Binding Affinity at GABAA/α6
T2 construct: expressed in transfected cells
Procedure: as §1
as §1, with “The GABAA subunit selectivity of several compounds prepared as described above were determined using competitive binding assays. […] Membranes” for “Membranes”

[4] = molecular target: T3, GABAA/α5 (α5β3γ2 GABAA receptor) (Homo sapiens, UniProt P18507+P31644); test: competitive binding assay with [3H]flunitrazepam; conditions: Table 3; read-out: Binding Affinity at GABAA/α5
T3 construct: expressed in transfected cells
Procedure: as §1
as §1, with “The GABAA subunit selectivity of several compounds prepared as described above were determined using competitive binding assays. […] Membranes” for “Membranes”

[5] = molecular target: T4, GABAA/α3 (α3β3γ2 GABAA receptor) (Homo sapiens, UniProt P18507+P34903); test: competitive binding assay with [3H]flunitrazepam; conditions: Table 3; read-out: Binding Affinity at GABAA/α3
T4 construct: expressed in transfected cells
Procedure: as §1
as §1, with “The GABAA subunit selectivity of several compounds prepared as described above were determined using competitive binding assays. […] Membranes” for “Membranes”

[6] = molecular target: T5, GABAA/α4 (α4β3γ2 GABAA receptor) (Homo sapiens, UniProt P18507+P48169); test: competitive binding assay with [3H]flunitrazepam; conditions: Table 3; read-out: Binding Affinity at GABAA/α4
T5 construct: expressed in transfected cells
Procedure: as §1
as §1, with “The GABAA subunit selectivity of several compounds prepared as described above were determined using competitive binding assays. […] Membranes” for “Membranes”

[7] = molecular target: T6, GABAA/α1 (α1β3γ2 GABAA receptor) (Homo sapiens, UniProt P14867+P18507); test: competitive binding assay with [3H]flunitrazepam; conditions: Table 3; read-out: Binding Affinity at GABAA/α1
T6 construct: expressed in transfected cells
Procedure: as §1
as §1, with “The GABAA subunit selectivity of several compounds prepared as described above were determined using competitive binding assays. […] Membranes” for “Membranes”

[8] = tested on: motor coordination of mice; test: rotarod test (motor impairment); type: in vivo; conditions: HZ166 16 and 48 mg/kg, gabapentin 10 and 30 mg/kg, i.p., 60 min after treatment
Procedure: Motor impairment: A possible impairment of motor function was analyzed in the rotarod test. Mice were trained on the rotarod (diameter 3 cm, 2 rpm) for 2 days. Animals capable of remaining on the rotarod in the absence of treatment for at least 2 min were selected for drug testing. On the test day, the latency to fall off the rod was recorded before and 60 minutes after treatment with vehicle, HZ166 or gabapentin.

[9] = tested on: neuropathic pain after CCI of the sciatic nerve; test: chronic constriction injury (CCI) model, mechanical sensitization (von Frey filaments); type: in vivo, mice
Procedure: In addition, the pro- or antinociceptive effects of the compounds of the present invention are analyzed in the chronic constriction injury (CCI) model. The GABAA receptor subunit selective test compounds of the present invention are analysed in the CCI model in 7-8-week-old C57BL/6 mice. See Bennett, G. J. & Xie, Y. K. A peripheral mononeuropathy in rat that produces disorders of pain sensation like those seen in man. […] Seven to eight week old mice are anesthetized with isofluran. Unilateral constriction injury of the left sciatic nerve just proximal to the trifurcation is performed with three loose ligatures. In sham-operated animals the sciatic nerve is exposed and the connective tissue is freed, but no ligatures are applied. […] Heat hyperalgesia, cold allodynia and mechanical sensitization are assessed 7-9 days after surgery. Mechanical sensitivity is assessed with electronic von Frey filaments (IITC).
Pain studies—Neuropathic pain: HZ166 and gabapentin were analyzed in the chronic constriction injury (CCI) model. Unilateral constriction injury of the left sciatic nerve just proximal to the trifurcation was performed as described previously (Bennett and Xie, 1988). Anesthesia was induced and maintained by 2% isoflurane, combined with oxygen (30%). The sciatic nerve was exposed at the mid-thigh level proximal to the sciatic trifurcation by blunt dissection through the biceps femoris muscle. […] of nerve were freed of adhering tissue and three chromic gut ligatures (4/0) (Ethicon) were loosely put around the nerve with about 1 mm spacing. The ligatures were tied until they elicited a brief twitch in the hindlimb. The surgical wound was closed in layers. Heat hyperalgesia and mechanical sensitization were assessed 7-16 days after surgery.
Pain Studies—Mechanical sensitization: Mechanical sensitivity was assessed with dynamic von Frey filaments (IITC, Woodland Hills, Calif.). 4-5 measurements were made for each time point and animal and averaged. Measurements of paw withdrawal thresholds of the injured paw and of the contralateral paw were made alternately.
Statistical Analysis: For all different doses and vehicle, baseline paw withdrawal thresholds/latencies on day 7 after nerve ligation or on day 2 after zymosan A injection were subtracted from all later withdrawal thresholds and the area under the curve (AUC) was calculated. Drug effects were expressed as percent maximum possible effect (MPE) calculated from comparisons of paw withdrawal latencies or thresholds obtained prior to surgery or inflammation and before and after drug treatment. […] Unless otherwise indicated, statistical comparisons were made with one-way analysis of variance (ANOVA) followed by Scheffe's post hoc test. P values<0.05 were considered significant.

[10] = tested on: locomotor activity of mice; test: spontaneous locomotor activity (activity cage); type: in vivo; conditions: i.p.
Procedure: Locomotor activity: Spontaneous locomotor activity was tested using a commercially available microprocessor equipped activity cage (actiframe, Gerb Elektronik). Mice were placed in the activity cage 15 min before testing. Locomotor activity was measured for 1 h after intraperitoneal administration of vehicle, gabapentin or HZ166 during the early light phase of the day-night cycle.

In the case of `C#Cc1ccc2c(c1)C(c1ccccn1)=NCc1c(C(=O)O)ncn1-2` [HZ-166 acid], the “anticonvulsant activity of the sole metabolite” value [1] is listed as “anticonvulsant”.
For `C#Cc1ccc2c(c1)C(c1ccccc1)=NCC(=O)N2C` [QB-II-066, 1-Methyl-7-acetyleno-5-phenyl-1,3-dihydro-benzo[e]-1,4-diazepin-2-one], the Ki [2] was 42.1 nM, the Ki [3] was > 1000 nM and the Ki [4] was 6.8 nM. For the same compound, the Ki [5] was 47.4 nM, the Ki [6] was > 1000 nM and the Ki [7] was 76.3 nM.
In the case of `NCC1(CC(=O)O)CCCCC1` [gabapentin, reference compound], the “interfered with rotarod performance” value [8] is reported as “Neither”, the “reversal of mechanical hypersensitivity” value ([9]; i.p., CCI model) is reported as “dose-dependent reversal” and the “maximum antihyperalgesic effect (efficacy) compared with HZ166” value ([9]; reached only with sedative doses) is reported as “higher”. The “dose at which sedative effects were observed” value [10] was 30 mg/kg and the “doses with significant reduction in locomotor activity” value [10] was ≥ 30 mg/kg.
